Data taken from BigSolDB 2.1.

Nc1cc([N+](=O)[O-])ccc1Cl
solubility (mole fraction)
Details | 273.15 K | 278.15 K | 283.15 K | 288.15 K | 293.15 K | 298.15 K | 303.15 K | 308.15 K | 313.15 K
in 1,4-dioxane | – | – | – | 0.11 | 0.119 | 0.13 | 0.142 | 0.154 | 0.169
in 2-butanone | 0.0877 | 0.0973 | 0.108 | 0.119 | 0.13 | 0.141 | 0.153 | 0.165 | 0.179
in NMP | 0.155 | 0.161 | 0.166 | 0.173 | 0.179 | 0.186 | 0.193 | 0.201 | 0.209
in acetone | 0.103 | 0.112 | 0.122 | 0.133 | 0.144 | 0.156 | 0.168 | 0.182 | 0.197
in acetonitrile | 0.0222 | 0.0277 | 0.0342 | 0.0413 | 0.0495 | 0.0579 | 0.0671 | 0.077 | 0.0877
in ethanol | 0.0097 | 0.0112 | 0.0129 | 0.0149 | 0.0173 | 0.0198 | 0.0227 | 0.0258 | 0.0297
in ethyl acetate | 0.0765 | 0.0836 | 0.0915 | 0.0991 | 0.107 | 0.116 | 0.126 | 0.135 | 0.145
in isopropanol | 0.0047 | 0.0059 | 0.0074 | 0.0091 | 0.0109 | 0.0132 | 0.0158 | 0.0188 | 0.0226
in methanol | 0.0071 | 0.0085 | 0.01 | 0.0118 | 0.0141 | 0.0165 | 0.0193 | 0.0227 | 0.0263
in n-butanol | 0.0055 | 0.0069 | 0.0086 | 0.0104 | 0.0128 | 0.0153 | 0.0182 | 0.0213 | 0.0252
in n-propanol | 0.008 | 0.0094 | 0.011 | 0.0129 | 0.0152 | 0.0177 | 0.0209 | 0.0246 | 0.0283
in toluene | 0.0118 | 0.0134 | 0.0153 | 0.0174 | 0.0199 | 0.0231 | 0.0268 | 0.0309 | 0.0352
